≈ marks a conversion by molar mass, not a printed value.
Assays:
Type in all cases: cell-based
[1] = system: B. subtilis WT168; test: MIC by CLSI broth micro-dilution, B. subtilis WT168; settings: Bacillus subtilis, read-out: Minimum inhibitory concentration
Procedure: Aminoxy acids were synthesized by the standard peptide coupling procedures. Minimum inhibitory concentration was determined using CLSI broth micro-dilution method in 96-wells microtitre plates. Minimum inhibitory concentration is defined as the lowest concentration of the compound that inhibits visible growth of the bacteria. All experiments were performed three times. 24 compounds including aminoxy acid monomers and dipeptides have been identified to show toxicity against multidrug resistant Staphylococcus aureus Mu3 and summarized in Table 1. The minimum inhibitory concentration of compound 8 and compound 35 on other gram-positive bacteria was also evaluated and summarized in Table 2. […] As shown in FIGS. 3A-3B there are no observable hemolysis for compound 8 and compound 35 towards human red blood cell.
Bacteria were streaked from the glycerol stock into BHI agar and were incubated overnight. Single colony was picked for the overnight culture in cation-adjusted Mueller Hinton broth (CAMH), LB or BHI. The overnight culture was sub-cultured and regrew to exponential phase for the experiment.
MIC was determined by CLSI broth micro-dilution method in 96-wells microtitre plates. […] Optical density was recorded by DTX 880 multimode detector (Beckman Coulter, California, US). […]

[2] = system: MDCK; test: Mammalian cell cytotoxicity assay (MTT), MDCK; settings: at 16 folded MIC (50 μM compound 8, 12.5 μM compound 35)
Procedure: (§1) FIGS. 2A-2B are the bar graphs showing the cytotoxicity of compound 8 (FIG. 2A) and compound 35 (FIG. 2B) towards mammalian cell NIH3T3, MDCK and MIHA. % survival is mean±S.D normalized to DMSO as the negative control of a representative experiment. Biological triplicates were conducted.
(§2) In the treated culture dish, cells were washed by PBS and then trypsinized. DMEM was added to quench the reaction. Cells were centrifuged and resuspended into fresh DMEM. Cells were then seeded in 96-well microtitre plate (100 μL, 5000 cells per well) for 24 hours before addition of compounds. The compounds were two-fold serial diluted by DMSO in a DMSO-compatible 96-well plate. 1 μL of compound in DMSO is transferred into the 96-well microtitre preparation plate containing 100 μL DMEM medium. The medium in culture plate was removed and compounds in preparation plate were transferred to culture plate. Equal volume of DMSO was used as negative control.
(§3) After 24 hours of incubation of cells, cell viability was measured by MTT assay. In MTT assay, 20 μL 5 mg/mL MTT solution in PBS was added to cell medium and cultured for 3 hours. The medium was then removed and 50 μL DMSO was added and cultured for 10 minutes. Absorbance at 595 nm was measured spectrophotometrically (Beckman Coulter DTX 880 Multimode Detector) and normalized to DMSO group. Biological replicates were performed.

[3] = system: MIHA; test: Mammalian cell cytotoxicity assay (MTT), MIHA; settings: at 16 folded MIC (50 μM compound 8, 12.5 μM compound 35)
Procedure: as §1, §2, §3

[4] = system: pre-established Staphylococcus aureus ATCC 35556 biofilm; test: Reduction of established biofilm (crystal violet); settings: 24 hours pre-established biofilm treated 24 hours, concentration dependent
Procedure: 24 hours pre-established Staphylococcus. aureus ATCC 35556 biofilm was treated with various concentrations of compound 8, compound 35 or 1% DMSO as negative control for 24 hours. Biofilm was quantified using crystal violet. The data were normalized to DMSO (100% biofilm) and represent average values±S.D. (n=9 per group). Statistical analysis was performed by ANOVA with Dunnett's post-test to calculate p-values adjusted for multiple comparisons with DMSO as control condition (*p<0.05; **p<0.01; ***p<0.001).
Briefly, overnight cultures of Staphylococcus aureus ATCC 35556 in TSB were diluted 1:100 and regrow for 2.5 hours at 37° C., 250 rpm. The bacteria were diluted 1:100 into fresh TSB and 200 μL bacteria in TSB was added to each well of a flat-bottom 96-well plate (200 μL/well). The plate was incubated at 37° C. for 24 hours to establish biofilms. After 24 hours, the supernatant was removed and washed by PBS (200 μL) 2 times. Premixed solution of TSB and compound was prepared in a separate 96-well-plate (200 μL/well; two-folded serial dilutions; final DMSO concentration of maximum 1%). 200 μL compound in TSB was transferred to the plates with established biofilms. […] Following a 1:4 dilution step (33% acetic acid), the optical density was measured at 595 nm by Beckman Coulter DTX 880 Multimode Detector. […]

CC(C)C[C@H](ONC(=O)[C@@H](COCc1ccccc1)ONC(=O)c1cc(C(F)(F)F)cc(C(F)(F)F)c1)C(=O)Nc1ccc2c(c1)OC(F)(F)O2 [Compound 35]
MIC [1]: 1.56 µM (≈ 1.15 µg/mL) | toxicity against mammalian cell MDCK [2]: minimal toxicity | toxicity against mammalian cell MIHA [3]: minimal toxicity | established Staphylococcus aureus biofilm [4]: significantly reduced

CC(C)C[C@H](ONC(=O)[C@@H](COCc1ccccc1)ONC(=O)c1cc(C(F)(F)F)cc(C(F)(F)F)c1)C(=O)Nc1ccccc1 [Compound 8]
MIC [1]: 3.13 µM (≈ 2.05 µg/mL) | toxicity against mammalian cell MDCK [2]: minimal toxicity | toxicity against mammalian cell MIHA [3]: minimal toxicity | established Staphylococcus aureus biofilm [4]: significantly reduced
